In patent US12319655B2, “RAF kinase inhibitors and methods of use thereof” (Deciphera Pharmaceuticals, LLC, priority 2021, dated 2025):
pIC50: −log10 of the molar value.

Key:
[1] = target: B-Raf kinase (SEQ. ID NO: 2) (Homo sapiens (Human), UniProt P15056); test: Biochemical Assay for B-Raf (2); conditions: Table J, biochemical assay (2); read-out: BRAF (2)
Experimental: Biochemical Assay for B-Raf (2)
Activity of B-Raf kinase (SEQ. ID NO: 2) was determined spectroscopically using a coupled pyruvate kinase/lactate dehydrogenase assay that continuously monitors the ATP hydrolysis-dependent oxidation of NADH (e.g., Schindler et al., Science, 2000, 289, 1938-1942). Assays were conducted in 384-well plates (25 μL final volume) using 2 nM B-Raf (Sigma), 1.5 units pyruvate kinase, 2.1 units lactate dehydrogenase, 1 mM phosphoenol pyruvate, 0.7 mM NADH, 50 nM MEK (SignalChem), and 1 mM ATP in assay buffer (100 mM Tris, pH 7.5, 15 mM MgCl2, 0.5 mM DTT, 0.1% octyl-glucoside, 0.002% (w/v) BSA, and 0.002% Triton X-100). Inhibition of B-Raf was measured by adding serial diluted test compound (final assay concentration of 1% DMSO). A decrease in absorption at 340 nm was monitored hourly for 4 h at 30° C. on a multi-mode microplate reader (BioTek). The reaction rate was calculated using the 2 to 3 h time frame. The reaction rate at each concentration of compound was converted to percent inhibition using controls (i.e., reaction with no test compound and reaction with a known inhibitor) and IC50 values were calculated by fitting a four-parameter sigmoidal curve to the data using Prism (GraphPad software).

[2] = target: A-Raf kinase (SEQ. ID No: 1) (Homo sapiens (Human), UniProt P10398, Y301D/Y302D); test: Biochemical Assay for A-Raf (2); conditions: Table J, biochemical assay (2); read-out: ARAF (2)
Sequence of A-Raf kinase (SEQ. ID No: 1) (P10398 other isoform, or with tags, fused parts or gaps Y301D (already in the parent)/Y302D (already in the parent)): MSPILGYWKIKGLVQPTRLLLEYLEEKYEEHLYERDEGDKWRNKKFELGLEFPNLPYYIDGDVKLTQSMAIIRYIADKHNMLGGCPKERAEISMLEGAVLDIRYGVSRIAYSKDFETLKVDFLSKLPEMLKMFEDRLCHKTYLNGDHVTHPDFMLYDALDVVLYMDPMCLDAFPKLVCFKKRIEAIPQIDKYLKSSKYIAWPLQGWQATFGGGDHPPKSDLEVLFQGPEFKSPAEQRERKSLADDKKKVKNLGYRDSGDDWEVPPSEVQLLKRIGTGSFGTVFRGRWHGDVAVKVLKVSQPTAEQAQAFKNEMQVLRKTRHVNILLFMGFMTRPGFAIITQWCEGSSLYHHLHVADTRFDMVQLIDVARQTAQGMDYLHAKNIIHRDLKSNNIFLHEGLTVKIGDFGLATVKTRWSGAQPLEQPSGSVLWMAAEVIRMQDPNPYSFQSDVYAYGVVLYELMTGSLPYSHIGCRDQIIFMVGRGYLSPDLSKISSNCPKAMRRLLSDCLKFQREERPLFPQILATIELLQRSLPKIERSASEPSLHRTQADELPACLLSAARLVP
Experimental: Biochemical Assay for A-Raf (2)
Activity of A-Raf kinase (SEQ. ID No: 1) was determined spectroscopically using a coupled pyruvate kinase/lactate dehydrogenase assay that continuously monitors the ATP hydrolysis-dependent oxidation of NADH (e.g., Schindler et al., Science, 2000, 289, 1938-1942). Assays were conducted in 384-well plates (25 μL final volume) using 20 nM A-Raf (Eurofins), 1.5 units pyruvate kinase, 2.1 units lactate dehydrogenase, 1 mM phosphoenol pyruvate, 0.7 mM NADH, 100 nM MEK (SignalChem), and 1 mM ATP in assay buffer (100 mM Tris, pH 7.5, 15 mM MgCl2, 0.5 mM DTT, 0.1% octyl-glucoside, 0.002% (w/v) BSA, and 0.002% Triton X-100). Inhibition of A-Raf was measured by adding serial diluted test compound (final assay concentration of 1% DMSO). A decrease in absorption at 340 nm was monitored hourly for 4 h at 30° C. on a multi-mode microplate reader (BioTek). The reaction rate was calculated using the 3 to 4 h time frame. The reaction rate at each concentration of compound was converted to percent inhibition using controls (i.e., reaction with no test compound and reaction with a known inhibitor) and IC50 values were calculated by fitting a four-parameter sigmoidal curve to the data using Prism (GraphPad software).

Sequence of B-Raf kinase (SEQ. ID NO: 2) (P15056 416-766): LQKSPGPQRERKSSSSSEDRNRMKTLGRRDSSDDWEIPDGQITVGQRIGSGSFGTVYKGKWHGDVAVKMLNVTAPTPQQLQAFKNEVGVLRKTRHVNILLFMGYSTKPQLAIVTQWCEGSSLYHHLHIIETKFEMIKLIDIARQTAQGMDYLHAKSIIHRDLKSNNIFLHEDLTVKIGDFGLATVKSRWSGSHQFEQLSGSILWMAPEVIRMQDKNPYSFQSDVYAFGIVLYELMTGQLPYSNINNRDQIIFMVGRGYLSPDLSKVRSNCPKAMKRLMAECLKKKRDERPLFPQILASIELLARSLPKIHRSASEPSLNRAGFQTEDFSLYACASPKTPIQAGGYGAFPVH

Compound | pIC50 [1] | pIC50 [2]
Cc1cc(-c2cc(NC(=O)c3ccnc(C(C)(C)F)c3)ccc2C)cc(-c2ccnc(C(N)=O)c2)n1 [Example 484] | ≥ 7.00 | 6.00 to 6.30
CNC(=O)c1cc(-c2cc(-c3cc(NC(=O)c4ccnc(C(C)(C)F)c4)cnc3C)ccn2)ccn1 [Example 444] | 6.30 to 7.00 | 5.00 to 6.00
Cc1ccc(NC(=O)c2ccnc(C(C)(C)F)c2)cc1-c1ccnc(-c2ccnc(C(=O)NCCO)c2)c1 [Example 448] | 6.30 to 7.00 | 5.00 to 6.00
CNC(=O)c1cc(-c2cc(-c3cc(NC(=O)c4ccnc(C(C)(C)F)c4)ccc3C)cc(OCCO)n2)ccn1 [Example 449] | 6.30 to 7.00 | 5.00 to 6.00
Cc1cc(-c2cc(NC(=O)c3ccnc(C(C)(C)F)c3)ccc2C)cc(-c2ccnc(C#N)c2)n1 [Example 483] | 6.30 to 7.00 | 5.00 to 6.00
Cc1ccc(NC(=O)c2ccnc(C(C)(C)F)c2)cc1-c1ccnc(-c2ccnc(C#N)c2)c1 [Example 447] | 6.30 to 7.00 | 5.00 to 6.00
CNC(=O)c1cc(-c2cc(-c3cc(NC(=O)c4ccnc(C(C)C)c4)ccc3C)ccn2)ccn1 [Example 443] | ≥ 7.00 | 6.00 to 6.30

Further lines, results first:

pIC50 [1] | pIC50 [2] | Compound
6.00 to 6.30 | 5.00 to 6.00 | CNC(=O)c1cc(-c2cc(-c3cc(NC(=O)c4ccnc(C(C)(C)F)c4)ccc3C)c(C)cn2)ccn1 [Example 472]
≥ 7.00 | 6.30 to 7.00 | Cc1ccc(NC(=O)c2ccnc(C3CC3)c2)cc1-c1ccnc(-c2ccnc(NC(=O)C3CC3)c2)c1 [Example 458]
≥ 7.00 | 6.30 to 7.00 | Cc1ncc(NC(=O)c2ccnc(C3(C#N)CC3)c2)cc1-c1ccnc(-c2ccnc(NC(=O)C3CC3)c2)c1 [Example 461]
≥ 7.00 | 5.00 to 6.00 | CNC(=O)c1cc(-c2cncc(-c3cc(NC(=O)c4ccnc(C(C)(F)F)c4)ccc3C)c2)ccn1 [Example 440]
